# Patent US10745731B2, “Recombinant production method” (Hoffmann-La Roche Inc., priority 2015, dated 2020)
# Read-outs that look alike come from different tables or passages of the source.
# What was measured:
# HEK293F cells [1] = assay: Transient gene expression in HEK293F cells: cell specific productivity of the expressed antibody; assay type: cell-based, human; details: for specific productivity after 96 hours: none 2.01; for activity at 0.015 µM: 15 nM; for Mean cell specific productivity: untreated 1.71; for TGE enhancement after BAY11-7082 treatment compared to the corresponding single treatment: BAY11-7082 added 24 hours after stimulation
# Method: HEK293F cells were cultivated in F17 medium (Life Technologies) in shaker flasks at 36.5° C., 7.0% CO2 and 80% humidity in a shaker incubator (Kuhner, Mytron). Cells were split every three to four days and were cultivated no longer than five weeks. To avoid overgrowth and to keep them in the exponential phase of growth, viable cell densities (VCD) never exceeded 60*10^5 cells/mL.
# (§1) Transient gene expression is a 5-7 days lasting procedure. The standard operating procedure of this expression system is applicable to shaker flasks with various volumes of cell culture ranging from 80 mL to 2 L. First, half of the cell culture volume is seeded at a viable cell density (VCD) of 8*10^5 cells/mL. After two days of cultivation, cells are split to a VCD of about 12*10^5 cells/mL. On the next day, cells are transfected with a polyethylene imine (PEI)-based transfection reagent at a VCD between 20*10^5 cells/mL and 25*10^5 cells/mL. 3 hours after transfection, the production enhancer (if any) is added. 24 h after transfection, a feeding solution and a glucose bolus is supplemented to avoid the limitation of nutrients. Depending on cell viability, which should not decrease below 50%, the supernatant is harvested five to seven days post transfection and subjected to antibody purification.
# (§2) To compare transient gene expression rates always the same plasmids encoding for one distinct antibody were co-transfected.
# (§3) To co-transfect two plasmids equimolarily, the ratio of the base pair number of one plasmid to the total base pair number was calculated and multiplied with the total amount of DNA (0.5 mg/L). Plasmid one has a size of 10530 bp and plasmid two has a size of 7184 bp and were solved in water to a final concentration of 1 mg/mL. For transfection of one liter cell culture, 297 μL of plasmid one and 203 μl of plasmid two were dissolved in 40 mL phosphate buffered saline (PBS) at room temperature. 1.25 mL JetPEI® solution was added and the solution was mixed well. After incubation for 10-15 min., the mixture was added to the cells. The cells were transfected in a batch containing the whole cell culture necessary for every experiment to avoid variance arising from different transfection efficiencies.
# (§4) 80 mL of the transfected cell culture batch was added to a 125 ml shaker flask. For every experiment, two or three 125 mL shaker flasks were used as biological replicates and treated the same way. Three hours after transfection, cells were split into 125 mL shaker flasks and the cellular treatments with small molecules or ligands were started. Basal protein expression was determined by untreated control samples. To compare samples with the standard operating procedure, cells were also treated with VPA to a final concentration of 4 mM or 3 mM. VPA and its analogues were dissolved in double distilled water. […] Tumor necrosis factor (TNF) alpha was reconstituted with PBS supplemented with 0.1% BSA. Flagellin was dissolved in sterile double distilled water. The applied molecules were not added to the cultivation directly, but diluted in 16 mL medium pre-warmed to 36.5° C. and added to the cultivation thereafter.
# (§5) 24 h after transfection a feeding solution at 36.5° C. and 3 mg/mL glucose were added to the cultivation.
# (§6) To determine cell viability and viable cell density (VCD) 1 mL cultivation medium (cell suspension) was transferred into a Cedex low fouling sample cup. The cup was placed into a Vicell instrument (Beckman Coulter). The instrument mixes cells with trypan blue to stain dead cells. After analysis of 50 images VCD was calculated and viability was determined by calculation of the percentage of viable cell number in relation to the total cell number.
# Total concentration of the transiently expressed antibody was determined by a turbidimetric test. One mL cell suspension was transferred into an Eppendorf cup and centrifuged for 10 min. at 10,000 rpm (9,300 g).
# HDAC [2] = details: cited from earlier work
# HEK293F cells [3] = assay: Transient gene expression in HEK293F cells: IgG concentration / titer (turbidimetric test); assay type: cell-based, human; details: none=100, N=1, FIG. 7
# Method: as §1, §2, §3, §4, §5
# Total concentration of the transiently expressed antibody was determined by a turbidimetric test. One mL cell suspension was transferred into an Eppendorf cup and centrifuged for 10 min. at 10,000 rpm (9,300 g). The supernatant was transferred into a new cup and subjected to Cobas Integra 400 plus (Roche) analysis. With comparison to internal standard the absolute concentration was calculated.
# HEK293F cells [4] = assay type: cell-based; details: in words
# Method: as §6
# HDAC [5] = assay: in situ HDAC activity fluorimetric assay in HEK293F cells; assay type: cell-based, human; details: for HDAC inhibition: yes/no, summary table
# Method: HDAC activity was determined by the in situ HDAC activity fluorimetric assay kit (Biovision) according to the manufacturer's instructions. HEK293F cells were suspended in F17 medium (Life Technologies) to a cell density of 5*10^5 cells/mL. One hundred micro liter culture was pipetted per well into a black ELISA plate. The plate was centrifuged at 1000 g for 5 min. The supernatant was discarded and the cells were resuspended in a reaction mix containing F17 medium, 1% HDAC substrate and the molecule tested towards HDAC inhibitory activity. 10 μM Trichostatin A was used as a positive control and the basal HDAC activity was determined by re-suspending the cells in F17 medium with 1% HDAC substrate. Furthermore, cells were resuspended in F17 medium without HDAC substrate as a background control. The HDAC activity assay was performed in triplicates for every sample as well as every control. The 96-well plate was incubated at 36.5° C., 80% humidity and 7% CO2 for one hour. During this time, the active HDACs deacetylate the HDAC substrate what releases the quenched fluorescent signal of the substrate. After incubation the fluorescent signal was analyzed by the infinite fluorescence plate reader (TECAN). The fluorescence signal of the samples and controls was normalized by subtracting the fluorescence signal of the background control. It is assumed that the fluorescent signal arising from deacetylation of the substrate directly correlates with HDAC activity.
# [6] = description from the literature
# [7] = 50 ng/mL, none=100, N=2, FIG. 5
compound,measurement,setting,value
"Cc1ccc(S(=O)(=O)/C=C/C#N)cc1 [BAY 11-7082, BAY11-7082]",specific productivity after 96 hours,"HEK293F cells [1]; 1 μM alone, N=3",2.21 pg/cell/day
same,specific productivity after 96 hours,"HEK293F cells [1]; 5 μM alone, N=3",2.30 pg/cell/day
same,specific productivity after 96 hours,"HEK293F cells [1]; 15 μM alone, N=3",2.27 pg/cell/day
same,duration of the effect,HEK293F cells [1]; NFκB (IκB kinase) inhibition in transfected HEK293F cells,about 4 days
O=C(/C=C/c1cccc(S(=O)(=O)Nc2ccccc2)c1)NO [Belinostat],activity at 1 µM,"HEK293F cells [1]; Homo sapiens, HEK293F, employed concentration 1 μM, none=100, N=2, FIG. 2B, read-out: relative cell specific productivity",115%
CCCCOc1ccc(CC(=O)NO)cc1 [Bufexamac],HDAC class / isoform selectivity,HDAC [2]; [6],selective class IIb HDAC inhibitor
same,activity at 10 µM,"HEK293F cells [1]; Homo sapiens, HEK293F, employed concentration 10 μM, none=100, N=1, FIG. 2B, read-out: relative cell specific productivity",94%
Nc1ccccc1NC(=O)c1ccc(CNC(=O)OCc2cccnc2)cc1 [Entinostat],HDAC class / isoform selectivity,HDAC [2]; [6],class I HDAC inhibitor with additional inhibitory activity to class IIa member HDAC 9
same,activity at 0.3 µM,"HEK293F cells [1]; Homo sapiens, HEK293F, employed concentration 300 nM, none=100, N=2, FIG. 2B, read-out: relative cell specific productivity",108%
Nc1ccccc1NC(=O)c1ccc(CNc2nccc(-c3cccnc3)n2)cc1 [Mocetinostat],HDAC class / isoform selectivity,HDAC [2]; [6],lowest IC50 values for HDAC 1 and 2 and modest inhibitory activity against HDAC 3 and HDAC 11
same,activity at 2 µM,"HEK293F cells [1]; Homo sapiens, HEK293F, employed concentration 2 μM, none=100, N=2, FIG. 2B, read-out: relative cell specific productivity",135%
COc1ccc(Cn2ccc3ccc(C(=O)NO)cc32)cc1 [PCI34051],HDAC class / isoform selectivity,HDAC [2]; [6],HDAC 8-specific inhibitor
same,relative IgG concentration,HEK293F cells [3]; 5 μM,99%
"CCCCCCCCCCCCCC(=O)O[C@@H]1[C@@H](C)[C@@]2(O)[C@@H](C=C(CO)C[C@]3(O)C(=O)C(C)=C[C@@H]23)[C@@H]2C(C)(C)[C@]12OC(C)=O [PMA, phorbol myristate acetate]",activity at 0.1 µM,"HEK293F cells [1]; Homo sapiens, HEK293F, 100 nM, none=100, N=2, FIG. 5, read-out: relative cell specific productivity",149%
Nc1cc(F)ccc1NC(=O)/C=C/c1cnn(C/C=C/c2ccccc2)c1 [RGFP966],HDAC class / isoform selectivity,HDAC [2]; [6],specific HDAC 3 inhibitor
same,relative IgG concentration,HEK293F cells [3]; 1 μM,103%
C/C=C1\NC(=O)[C@H]2CSSCC/C=C/[C@H](CC(=O)N[C@H](C(C)C)C(=O)N2)OC(=O)[C@H](C(C)C)NC1=O [Romidepsin],activity at 0.015 µM,"HEK293F cells [1]; Homo sapiens, HEK293F, none=100, N=3, FIG. 8A, read-out: relative cell specific productivity",203%
same,activity at 0.015 µM,"HEK293F cells [1]; Homo sapiens, HEK293F, none=100, N=3, FIG. 9A, read-out: relative cell specific productivity",203%
same,toxicity,HEK293F cells [4],mild toxicity
O=C(NCC1(c2nc(-c3ccccc3)cs2)CCOCC1)c1cccc(-c2noc(C(F)(F)F)n2)c1 [TMP269],HDAC class / isoform selectivity,HDAC [2]; [6],"preference to class IIa HDACs 4, 5, 7, and 9"
same,relative cell specific productivity,"HEK293F cells [1]; employed concentration 15 μM, none=100, N=2, FIG. 2B",99%
CC(/C=C/C(=O)NO)=C\[C@@H](C)C(=O)c1ccc(N(C)C)cc1 [Trichostatin A],HDACi,HDAC [5],99%
"CCC(=O)CCCCC[C@@H]1NC(=O)[C@H]2CCCCN2C(=O)[C@H]([C@@H](C)CC)NC(=O)[C@H](Cc2cn(OC)c3ccccc23)NC1=O [apicidin, Apicidin]",relative IgG concentration,HEK293F cells [3]; 200 nM,182%
C=C(C)[C@@H]1CC[C@]2(C(=O)O)CC[C@]3(C)[C@H](CC[C@@H]4[C@@]5(C)CC[C@H](O)C(C)(C)[C@@H]5CC[C@]43C)[C@@H]12 [betulinic acid],activity at 10 µM,"HEK293F cells [1]; Homo sapiens, HEK293F, 10 μM, none=100, N=2, FIG. 5, read-out: relative cell specific productivity",121%
Cc1ccc(NC(=O)CCCCCC(=O)Nc2ccccc2N)cc1 [pimelic diphenylamide 106],HDAC selectivity,"HDAC [2]; HDAC classes, summary table",Class I
same,HDAC class / isoform selectivity,HDAC [2]; [6],"class I HDAC inhibitor with highest affinity towards HDAC 1 and 3, high affinity towards HDAC 2 and modest affinity towards HDAC 8"
same,activity at 20 µM,"HEK293F cells [1]; Homo sapiens, HEK293F, 20 μM, transfected control=100, N=3, FIG. 3B, read-out: relative cell specific productivity",171%
same,activity at 20 µM,"HEK293F cells [1]; Homo sapiens, HEK293F, employed concentration 20 μM, none=100, N=2, FIG. 2B, read-out: relative cell specific productivity",160%
same,Mean cell specific productivity,HEK293F cells [1]; conc. 20 μM,5.4 (20 μM) pg/cell/24 h
same,HDACi,"HDAC [5]; 20 μM, N=3, FIG. 3A",22.6%
same,HDAC inhibition,HDAC [5],yes
CCC(C)C(CC)C(N)=O (centres unmarked) [valnoctamide],TGE enhancement,"HEK293F cells [1]; 2 mM, in words",Weak TGE enhancement
same,activity at 3000 µM,"HEK293F cells [1]; Homo sapiens, HEK293F, 3 mM, transfected control=100, N=3, FIG. 3B, read-out: relative cell specific productivity",122%
same,activity at 2000 µM,"HEK293F cells [1]; Homo sapiens, HEK293F, employed concentration 2 mM, none=100, N=2, FIG. 4, read-out: relative cell specific productivity",133%
same,activity at 3000 µM,"HEK293F cells [1]; Homo sapiens, HEK293F, employed concentration 3 mM, none=100, N=2, FIG. 4, read-out: relative cell specific productivity",125%
same,Mean cell specific productivity,HEK293F cells [1]; conc. 3 mM,1.71 (3 mM) pg/cell/24 h
same,Effect on titer/SPR,"HEK293F cells [1]; summary table, in words",weak
same,HDACi,"HDAC [5]; 3 mM, N=3, FIG. 3A",11.1%
same,HDAC inhibition,HDAC [5],no
CCC(C)C(CC)C(=O)O (centres unmarked) [valnoctic acid],HDAC inhibitory activity,HDAC [2]; [6],weak HDAC inhibitory activity
"EGF: epidermal growth factor, NFκB activator",specific productivity after 96 hours,"HEK293F cells [1]; 20 ng/mL, single treatment, N=3",2.56 pg/cell/day
same,relative cell specific productivity,HEK293F cells [1]; [7],173%
same,TGE enhancement after BAY11-7082 treatment compared to the corresponding single treatment,HEK293F cells [1],significantly reduced
TNFalpha,relative cell specific productivity,HEK293F cells [1]; [7],139%
same,specific productivity after 96 hours,"HEK293F cells [1]; 50 ng/mL, single treatment, N=3",2.66 pg/cell/day
same,relative cell specific productivity,"HEK293F cells [1]; 50 ng/mL, single treatment, none=100, N=3",157%
same,TGE enhancement after BAY11-7082 treatment compared to the corresponding single treatment,HEK293F cells [1],significantly reduced
